Several values for one entry are separate records, joined by “and”; a condition that tells them apart may be missing. Identical values can stand only once.
Experiments:
[1] = test system: PC-3 human prostate cancer subcutaneous xenograft; assay: Pharmacodynamics in subcutaneous tumor model of PC-3 human prostate cancer; assay type: in vivo, Balb/c nude mice; details: PC-3 xenograft; for T/C (%) relative tumor proliferation rate / Relative tumor volume (x ± SE) / Tumor volume (x ± SE) / Effect on tumor growth compared with the solvent control group (in words): 10 mg/kg; for Effect on tumor growth compared with the solvent control group (in words): p values less than 0.01; for Anti-tumor effect compared with dasatinib (in words): same dose 10 mg/kg, 25th day
Procedure: (§1) PC-3 cells were inoculated subcutaneously on the right back of Balb/c nude mice to establish human prostate cancer subcutaneous xenograft animal model. When the mean tumor volume reached 160 mm^3, the mice used in the experiment were divided into groups and there were 8 mice in each group, the mice were injected intravenously twice a week. The therapeutic efficiency was evaluated based on the relative tumor proliferation rate (T/C %).
(§2) PC-3 cell line was cultured in vitro in Ham's F12K medium supplemented with fetal bovine serum with a volume ratio of 10% and L-glutamine (2 mM) at 37 with the air containing CO2 with a proportion of 5%, the tumor cells were routinely passaged twice a week. The tumor cells in the exponential growth phase were collected and suspended in the mixture formed by PBS and matirgel with an equal volume, and then placed on ice for inoculation of tumor cells.
(§3) 5×10^6 of PC-3 cells were inoculated subcutaneously on the right back of the mice used in the experiment, the tumor growth weas observed regularly, and stochastic grouping of the mice according to tumor size and body weight in mice and pharmacotherapy were carried out when the mean volume of the tumor reached 160 mm^3.
In this study all the operations related to operating, nursing and treatment were undertaken according to the handbook approved by Association for Assessment and Accreditation of Laboratory Animal Care (AAALAC). […] In everyday observation, the influence of tumor growth on normal animal behaviors (such as exercise, eating, drinking, change of weight, eyes, hair) and any other abnormalities were noticed. Death and clinical symptoms of animals in each group were recorded.
Throughout the experiment, the weight and tumor size of mice were measured twice a week. The computational formula of tumor size was as follows: tumor volume (mm^3)=0.5×(long diameter of tumor×short diameter of tumor^2). According to the tumor size in experimental groups and control group, RTV and T/C ratio were calculated. RTV is the relative tumor volume. T/C ratio is the percentage ratio of relative tumor volumes in the treatment groups and the control group at a time point after finish of treatment, and reflects the antitumor pharmacodynamic actions of the different treatment groups. When the experiment was finished, the tumors were recorded by photographs in the following two ways: 1. the animals in each group were euthanized by CO2, and the tumor-bearing sides were placed upwards and taken photographs for recording by group; 2. the tumors were removed and weighed first, and T/C values (percentage ratio of tumor weights in treatment groups and the control group) were calculated, and then tumors in each group were placed in order at the same time and taken photographs for recording.

[2] = test system: K562 human chronic myeloid leukemia subcutaneous xenograft; assay: Antitumor effect in subcutaneous tumor model of K562 human chronic myeloid leukemia; assay type: in vivo, NOD/SCID mice
Procedure: as §1, with “K562” for “PC-3”, “NOD/SCID” for “Balb/c nude”, “chronic myeloid leukemia” for “prostate cancer”, “130” for “160”, “group, then” for “group,”
as §2, with “K562” for “PC-3”, “RPMI-1640” for “Ham's F12K”, “5%. The” for “5%, the”
as §3, with “K562” for “PC-3”, “was” for “weas”, “130” for “160”
In this study all the operations related to operating, nursing and treatment were undertaken according to the handbook approved by Association for Assessment and Accreditation of Laboratory Animal Care (AAALAC). […] In everyday observation, the influence of tumor growth on animal normal behaviors (such as exercise, eating, drinking, change of weight, eyes, hair) and any other abnormalities were noticed. Death and clinical symptoms of animals in each group were recorded.
Throughout the experiment, the weight and tumor size of mice were measured twice a week. The computational formula of tumor size was as follows: tumor volume (mm^3)=0.5×(long diameter of tumor x short diameter of tumor^2). According to the tumor size in experimental groups and control group, RTV and T/C ratio were calculated. RTV is the relative tumor volume. T/C ratio is the percentage ratio of relative tumor volumes in the treatment group and the control group at a time point after finish of treatment, and reflects the antitumor pharmacodynamic actions of the different treatment groups.

[3] = 22nd day after grouping, compared with the solvent control group
[4] = 25th day after grouping, compared with the group using dasatinib
[5] = i.v. twice a week, 22nd day after grouping
[6] = i.v. twice a week, 25th day after grouping
[7] = injected intravenously twice a week, 22nd day after grouping
[8] = 5 mg/kg, 14th day after grouping, compared with the solvent control group
[9] = 5 mg/kg, 21st day after grouping, compared with the group using dasatinib, 5 mg/kg
[10] = 5 mg/kg, i.v. twice a week, 14th day after grouping
[11] = 5 mg/kg, i.v. twice a week, 21st day after grouping
[12] = 5 mg/kg, i.v. twice a week, 21st day after grouping, 5 mg/kg
[13] = 5 mg/kg, injected intravenously twice a week, 14th day after grouping, 5 mg/kg
[14] = 5 mg/kg, p values less than 0.001
[15] = 5 mg/kg, 21st day after grouping, compared with the group using dasatinib

## ^20k4arm -PEG-OCH2CH2OCOODS [DSN-3]
[1]; [3]
  T/C (%) relative tumor proliferation rate: 59%
[1]; [4]
  T/C (%) relative tumor proliferation rate: 70%
[1]; [5]
  Relative tumor volume (x ± SE): 927.5 ± 96.3
[1]; [6]
  Relative tumor volume (x ± SE): 864.7 ± 74.5
  Tumor volume (x ± SE): 1307 mm^3 and 1307 ± 155 mm^3
[1]; [7]
  Tumor volume (x ± SE): 1452 mm^3 and 1452 ± 139 mm^3
[1]
  Effect on tumor growth compared with the solvent control group (in words): statistically significant effect of anti-PC-3 tumor growth
  Anti-tumor effect compared with dasatinib (in words): more significant
[2]; [8]
  T/C (%) relative tumor proliferation rate: 11.8%
[2]; [9]
  T/C (%) relative tumor proliferation rate: 42%
[2]; [10]
  Relative tumor volume (x ± SE): 215.4 ± 41.1
[2]; [11]
  Relative tumor volume (x ± SE): 208 ± 37.6
[2]; [12]
  Tumor volume (x ± SE): 281 mm^3 and 281 ± 56 mm^3
[2]; [13]
  Tumor volume (x ± SE): 295 mm^3 and 295 ± 68 mm^3
[2]; [14]
  Effect on tumor growth compared with the solvent control group (in words): statistically significant effect of anti-K562 tumor growth
[2]; same dose 5 mg/kg, 21st day
  Anti-tumor effect compared with dasatinib (in words): more significant

## Cc1nc(Nc2ncc(C(=O)Nc3c(C)cccc3Cl)s2)cc(N2CCN(CCO)CC2)n1 [dasatinib]
[1]; [3]
  T/C (%) relative tumor proliferation rate: 73%
[1]; [5]
  Relative tumor volume (x ± SE): 1148.9 ± 112.7
[1]; [6]
  Relative tumor volume (x ± SE): 1235.3 ± 119.6
  Tumor volume (x ± SE): 1868 mm^3 and 1868 ± 76 mm^3
[1]; [7]
  Tumor volume (x ± SE): 1752 mm^3 and 1752 ± 76 mm^3
[1]
  Effect on tumor growth compared with the solvent control group (in words): statistically significant effect of anti-PC-3 tumor growth
[2]; [8]
  T/C (%) relative tumor proliferation rate: 12.4%
[2]; [10]
  Relative tumor volume (x ± SE): 226.9 ± 30.0
[2]; [11]
  Relative tumor volume (x ± SE): 289.1 ± 46.9
[2]; [12]
  Tumor volume (x ± SE): 391 mm^3 and 391 ± 79 mm^3
[2]; [13]
  Tumor volume (x ± SE): 311 mm^3 and 311 ± 55 mm^3
[2]; [14]
  Effect on tumor growth compared with the solvent control group (in words): statistically significant effect of anti-K562 tumor growth

## ^20k4arm-PEG-OCH2CH2NHCOODS [DSN-4]
[1]; [3]
  T/C (%) relative tumor proliferation rate: 48%
[1]; [4]
  T/C (%) relative tumor proliferation rate: 63%
[1]; [5]
  Relative tumor volume (x ± SE): 754.6 ± 84.5
[1]; [6]
  Relative tumor volume (x ± SE): 778.1 ± 82.4
  Tumor volume (x ± SE): 1177 mm^3 and 1177 ± 120 mm^3
[1]; [7]
  Tumor volume (x ± SE): 1182 mm^3 and 1182 ± 68 mm^3
[1]
  Effect on tumor growth compared with the solvent control group (in words): statistically significant effect of anti-PC-3 tumor growth
  Anti-tumor effect compared with dasatinib (in words): more significant
[2]; [8]
  T/C (%) relative tumor proliferation rate: 8.5%
[2]; [9]
  T/C (%) relative tumor proliferation rate: 36%
[2]; [10]
  Relative tumor volume (x ± SE): 155.5 ± 28.5
[2]; [11]
  Relative tumor volume (x ± SE): 161.8 ± 18.9
[2]; [12]
  Tumor volume (x ± SE): 219 mm^3 and 219 ± 45 mm^3
[2]; [13]
  Tumor volume (x ± SE): 210 mm^3 and 210 ± 47 mm^3
[2]; [14]
  Effect on tumor growth compared with the solvent control group (in words): statistically significant effect of anti-K562 tumor growth
[2]; same dose 5 mg/kg, 21st day
  Anti-tumor effect compared with dasatinib (in words): more significant

## ^20k4arm -PEG-OCH2CH2ODS [DSN-1]
[1]; [3]
  T/C (%) relative tumor proliferation rate: 67%
[1]; [4]
  T/C (%) relative tumor proliferation rate: 79%
[1]; [5]
  Relative tumor volume (x ± SE): 1053.2 ± 107.4
[1]; [6]
  Relative tumor volume (x ± SE): 975.6 ± 103.5
  Tumor volume (x ± SE): 1476 mm^3 and 1476 ± 118 mm^3
[1]; [7]
  Tumor volume (x ± SE): 1649 mm^3 and 1649 ± 142 mm^3
[1]
  Effect on tumor growth compared with the solvent control group (in words): statistically significant effect of anti-PC-3 tumor growth
  Anti-tumor effect compared with dasatinib (in words): more significant
[2]; [8]
  T/C (%) relative tumor proliferation rate: 14%
[2]; [15]
  T/C (%) relative tumor proliferation rate: 96%
[2]; [10]
  Relative tumor volume (x ± SE): 254.6 ± 42.2
[2]; [11]
  Relative tumor volume (x ± SE): 277.5 ± 32.2
[2]; [12]
  Tumor volume (x ± SE): 375 mm^3 and 375 ± 89 mm^3
[2]; [13]
  Tumor volume (x ± SE): 349 mm^3 and 349 ± 76 mm^3
[2]; [14]
  Effect on tumor growth compared with the solvent control group (in words): statistically significant effect of anti-K562 tumor growth
[2]; same dose 5 mg/kg, 21st day
  Anti-tumor effect compared with dasatinib (in words): no statistically significant differences

## ^20k4arm -PEG-OCH2COODS [DSN-2]
[1]; [3]
  T/C (%) relative tumor proliferation rate: 71%
[1]; [4]
  T/C (%) relative tumor proliferation rate: 88%
[1]; [5]
  Relative tumor volume (x ± SE): 1116.1 ± 98.2
[1]; [6]
  Relative tumor volume (x ± SE): 1087.1 ± 88.2
  Tumor volume (x ± SE): 1644 mm^3 and 1644 ± 146 mm^3
[1]; [7]
  Tumor volume (x ± SE): 1748 mm^3 and 1748 ± 146 mm^3
[1]
  Effect on tumor growth compared with the solvent control group (in words): statistically significant effect of anti-PC-3 tumor growth
  Anti-tumor effect compared with dasatinib (in words): no statistically significant difference
[2]; [8]
  T/C (%) relative tumor proliferation rate: 16%
[2]; [15]
  T/C (%) relative tumor proliferation rate: 121%
[2]; [10]
  Relative tumor volume (x ± SE): 282.1 ± 46.3
[2]; [11]
  Relative tumor volume (x ± SE): 350.3 ± 71.9
[2]; [12]
  Tumor volume (x ± SE): 462 mm^3 and 462 ± 114 mm^3
[2]; [13]
  Tumor volume (x ± SE): 372 mm^3 and 372 ± 80 mm^3
[2]; [14]
  Effect on tumor growth compared with the solvent control group (in words): statistically significant effect of anti-K562 tumor growth
[2]; same dose 5 mg/kg, 21st day
  Anti-tumor effect compared with dasatinib (in words): no statistically significant differences

Reference: patent US9566344B2, “Dasatinib and nonlinear configuration polyethylene glycol conjugate” (priority 2013, dated 2017)
